What was measured:
[1] = Lymphocyte populations in engrafted humanized mice treated for 30 days; type: in vivo; details: one month, 20 mg/kg or 40 mg/kg, compared to controls without treatment
Procedure: (§1) FIG. 7. Efficacy of Compound 1 to inhibit viral replication in humanized mice. A) Reconstituted SCID mice were infected with JRCSF HIV-1 strain by intraperitoneal injection. Control group received by gavage labrafil and 5% DMSO (n=15) and treated group 20 mg/kg b.i.d of Compound 1 in labrafil and 5% DMSO (n=14) for 15 days. Two independent experiments were performed with 5 and 10 reconstituted mice for each group. Viral load was assessed by measuring viral RNA using the Amplicor HIV-1 Monitor from Roche. B) FACS analysis was performed on peritoneal wash at day 15 post-treatment to assess the CD8/CD4 ratio. C) Engrafted NSG humanized mice were treated by oral gavage with Compound 1 at either 20 mg or 40 mg/kg once a day for 30 days and indicated lymphocyte populations (CD45+; CD4+ and CD8+) were monitored by FACS analysis. […] Viral load was assessed by measuring viral RNA using the Amplicor HIV-1 Monitor from Roche. […]
(§2) Briefly, newborn (<5 days old) NSG mice received sub-lethal (1 Gy) total body irradiation with a Cs source, and then received […] transduced or untransduced CD34+ human HSCs using a 50 μl Hamilton syringe via the intrahepatic (i.h.) route. […] Mice were monitored three times a week for symptoms or signs of adverse events, according to a standard score sheet. […]

YU2 HIV-1 virus = experiment: Humanized mice infected with YU2 HIV-1 virus, viral load; type: in vivo, mouse (NSG humanized); details: after 30 days of 40 mg/kg daily
Procedure: as §1, §2

[2] = test system: HIV RNA splicing in infected PBMCs; experiment: Sequence capture and 454 pyrosequencing of HIV RNA in infected PBMCs; type: cell-based, HIV-1
Procedure: To test whether Compound 1 influences the splicing of HIV RNA in infected cells, an array-based sequence capture was performed using a customized library probes targeting HIV sequences to get rid of cellular RNA. The probes were used to capture cDNAs prepared from infected treated and untreated PBMCs. After double capture, libraries were prepared and sequenced using 454 pyrosequencing (according to GS junior method manual). The average size of the reads around 400 bp allowed unambiguous assembly of viral genome from untreated sample (after 3 and 6 days of infection) using reads that were not mapped to human genome (hg19). All sequencing data were analysed using gsnap, as detailed in Wu et al. (Fast and SNP-tolerant detection of complex variants and splicing in short reads. Bioinformatics 26, 873-881 (2010)).

primary macrophages = experiment: Cell viability of primary macrophages under treatment; type: cell-based, human; details: data not shown

SMILES: FC(F)(F)Oc1ccc(Nc2ccc3cccc(Cl)c3n2)cc1 [Compound 1, 8-chloro-N-(4-(trifluoromethoxy)phenyl)quinolin-2-amine]
- engraftment values of CD45+ cells and ratio of CD8+/CD4+ [1]: neither alters engraftment values of CD45+ cells nor the ratio of CD8+/CD4+
- time the viral load remained low after treatment termination (YU2 HIV-1 virus): at least 50 days
- coverage of viral genome ([2]; 3 days post infection): 4149 reads
- fraction of reads corresponding to splice junctions ([2]; 3 days post-infection): 17.4%
- fraction of reads corresponding to splice junctions ([2]; 6 days post-infection): 13.3%
- number of reads ([2]; 6 days post-infection): 20 585
- cell viability (primary macrophages): not decreased
